Measured values from the supplement of paper PMC10307832.

Assays:
Assay in all cases: relative viability (nuclei count vs DMSO), 5 days (fraction); higher = more cells survive
QS11 + OSI-027 = compound: C1CC2=C(C1)C=C(C=C2)OC3=NC(=C4C(=N3)N(C=N4)CC5=CC=C(C=C5)C6=CC=CC=C6)N[C@@H](CC7=CC=CC=C7)CO [QS11] + COc1cccc2cc(-c3nc([C@H]4CC[C@H](C(=O)O)CC4)n4ncnc(N)c34)[nH]c12 [OSI-027] (partner 0.5 µM)
Outline: (§1)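 After 5 days of treatment, lung cancer cells in 1536-well plates were fixed and stained in a single step (final 0.05% Triton X-100, 1% formaldehyde, 1 ug/ml Hoechst) and their nuclei counted on 4× images. Treatment had been applied by pin tool the day after seeding as one drug alone or as a fixed anchor-drug dose with five library-drug doses (not always all listed) in √10 steps. Relative viability is the nuclei count of treated wells divided by that of vehicle wells, and values are medians of duplicate plates.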

QS11 + Phenformin = compound: C1CC2=C(C1)C=C(C=C2)OC3=NC(=C4C(=N3)N(C=N4)CC5=CC=C(C=C5)C6=CC=CC=C6)N[C@@H](CC7=CC=CC=C7)CO [QS11] + N=C(N)NC(=N)NCCc1ccccc1 [Phenformin] (partner 250 µM)
Outline: as §1

AZ628 + Bortezomib = compound: CC1=C(C=C(C=C1)NC(=O)C2=CC(=CC=C2)C(C)(C)C#N)NC3=CC4=C(C=C3)N=CN(C4=O)C [AZ628] + CC(C)C[C@H](NC(=O)[C@H](Cc1ccccc1)NC(=O)c1cnccn1)B(O)O [Bortezomib] (partner 0.002 µM)
Outline: as §1

[1] = compound: C[As](C)SC[C@H](NC(=O)CC[C@H](N)C(=O)O)C(=O)NCC(=O)O [Darinaparsin] + CC(C)C[C@H](NC(=O)[C@H](Cc1ccccc1)NC(=O)c1cnccn1)B(O)O [Bortezomib] (partner 0.002 µM)
Outline: as §1

LXF-289
relative viability (QS11 + OSI-027; first compound 0.08 µM): 0.764
relative viability (QS11 + OSI-027; first compound 0.253 µM): 0.805
relative viability (QS11 + OSI-027; first compound 0.8 µM): 0.692
relative viability (QS11 + OSI-027; first compound 2.53 µM): 0.873
relative viability (QS11 + OSI-027; first compound 8 µM): 0.82
relative viability (QS11 + Phenformin; first compound 0.08 µM): 0.468
relative viability (QS11 + Phenformin; first compound 0.253 µM): 0.509
relative viability (QS11 + Phenformin; first compound 0.8 µM): 0.486
relative viability (QS11 + Phenformin; first compound 2.53 µM): 0.495
relative viability (QS11 + Phenformin; first compound 8 µM): 0.541
relative viability (AZ628 + Bortezomib; first compound 0.08 µM): 0.994
relative viability (AZ628 + Bortezomib; first compound 0.253 µM): 1.03
relative viability (AZ628 + Bortezomib; first compound 0.8 µM): 0.915
relative viability (AZ628 + Bortezomib; first compound 2.53 µM): 0.917
relative viability (AZ628 + Bortezomib; first compound 8 µM): 0.648
relative viability ([1]; first compound 0.08 µM): 1.09
relative viability ([1]; first compound 0.8 µM): 1.03
relative viability ([1]; first compound 2.53 µM): 0.81
relative viability ([1]; first compound 8 µM): 1.19

NCI-H647
relative viability (QS11 + OSI-027; first compound 0.08 µM): 0.585
relative viability (QS11 + OSI-027; first compound 0.253 µM): 0.64
relative viability (QS11 + OSI-027; first compound 0.8 µM): 0.596
relative viability (QS11 + OSI-027; first compound 2.53 µM): 0.642
relative viability (QS11 + OSI-027; first compound 8 µM): 0.732
relative viability (QS11 + Phenformin; first compound 0.08 µM): 0.372
relative viability (QS11 + Phenformin; first compound 0.253 µM): 0.57
relative viability (QS11 + Phenformin; first compound 0.8 µM): 0.514
relative viability (QS11 + Phenformin; first compound 2.53 µM): 0.478
relative viability (QS11 + Phenformin; first compound 8 µM): 0.527
relative viability (AZ628 + Bortezomib; first compound 0.08 µM): 0.984
relative viability (AZ628 + Bortezomib; first compound 0.253 µM): 0.905
relative viability (AZ628 + Bortezomib; first compound 0.8 µM): 0.903
relative viability (AZ628 + Bortezomib; first compound 2.53 µM): 0.947
relative viability (AZ628 + Bortezomib; first compound 8 µM): 1.28
relative viability ([1]; first compound 0.08 µM): 1.79
relative viability ([1]; first compound 0.8 µM): 1.17
relative viability ([1]; first compound 2.53 µM): 0.802
relative viability ([1]; first compound 8 µM): 1.17

NCI-H1651
relative viability (QS11 + OSI-027; first compound 0.08 µM): 0.618
relative viability (QS11 + OSI-027; first compound 0.253 µM): 0.645
relative viability (QS11 + OSI-027; first compound 0.8 µM): 0.733
relative viability (QS11 + OSI-027; first compound 2.53 µM): 0.625
relative viability (QS11 + OSI-027; first compound 8 µM): 0.662
relative viability (QS11 + Phenformin; first compound 0.08 µM): 0.377
relative viability (QS11 + Phenformin; first compound 0.253 µM): 0.384
relative viability (QS11 + Phenformin; first compound 0.8 µM): 0.305
relative viability (QS11 + Phenformin; first compound 2.53 µM): 0.374
relative viability (QS11 + Phenformin; first compound 8 µM): 0.343
relative viability (AZ628 + Bortezomib; first compound 0.08 µM): 1.03
relative viability (AZ628 + Bortezomib; first compound 0.253 µM): 0.903
relative viability (AZ628 + Bortezomib; first compound 0.8 µM): 0.897
relative viability (AZ628 + Bortezomib; first compound 2.53 µM): 0.953
relative viability (AZ628 + Bortezomib; first compound 8 µM): 0.887
relative viability ([1]; first compound 0.08 µM): 1.05
relative viability ([1]; first compound 0.8 µM): 1.05
relative viability ([1]; first compound 2.53 µM): 0.917
relative viability ([1]; first compound 8 µM): 1.12

NCI-H838
relative viability (QS11 + OSI-027; first compound 0.08 µM): 0.339
relative viability (QS11 + OSI-027; first compound 0.253 µM): 0.366
relative viability (QS11 + OSI-027; first compound 0.8 µM): 0.362
relative viability (QS11 + OSI-027; first compound 2.53 µM): 0.378
relative viability (QS11 + OSI-027; first compound 8 µM): 0.359
relative viability (QS11 + Phenformin; first compound 0.08 µM): 0.629
relative viability (QS11 + Phenformin; first compound 0.253 µM): 0.468
relative viability (QS11 + Phenformin; first compound 0.8 µM): 0.519
relative viability (QS11 + Phenformin; first compound 2.53 µM): 0.517
relative viability (QS11 + Phenformin; first compound 8 µM): 0.531
relative viability (AZ628 + Bortezomib; first compound 0.08 µM): 0.949
relative viability (AZ628 + Bortezomib; first compound 0.253 µM): 0.772
relative viability (AZ628 + Bortezomib; first compound 0.8 µM): 0.733
relative viability (AZ628 + Bortezomib; first compound 2.53 µM): 0.838
relative viability (AZ628 + Bortezomib; first compound 8 µM): 0.942
relative viability ([1]; first compound 0.08 µM): 0.976
relative viability ([1]; first compound 0.8 µM): 0.766
relative viability ([1]; first compound 2.53 µM): 0.679
relative viability ([1]; first compound 8 µM): 0.811

NCI-H661
relative viability (QS11 + OSI-027; first compound 0.08 µM): 0.696
relative viability (QS11 + OSI-027; first compound 0.253 µM): 0.75
relative viability (QS11 + OSI-027; first compound 0.8 µM): 0.69
relative viability (QS11 + OSI-027; first compound 2.53 µM): 0.618
relative viability (QS11 + OSI-027; first compound 8 µM): 0.549
relative viability (QS11 + Phenformin; first compound 0.08 µM): 0.221
relative viability (QS11 + Phenformin; first compound 0.253 µM): 0.297
relative viability (QS11 + Phenformin; first compound 0.8 µM): 0.273
relative viability (QS11 + Phenformin; first compound 2.53 µM): 0.297
relative viability (QS11 + Phenformin; first compound 8 µM): 0.261
relative viability (AZ628 + Bortezomib; first compound 0.08 µM): 0.823
relative viability (AZ628 + Bortezomib; first compound 0.253 µM): 0.805
relative viability (AZ628 + Bortezomib; first compound 0.8 µM): 0.684
relative viability (AZ628 + Bortezomib; first compound 2.53 µM): 0.699
relative viability (AZ628 + Bortezomib; first compound 8 µM): 0.562
relative viability ([1]; first compound 0.08 µM): 0.975
relative viability ([1]; first compound 0.8 µM): 0.853
relative viability ([1]; first compound 2.53 µM): 0.92
relative viability ([1]; first compound 8 µM): 0.889

NCI-H1734
relative viability (QS11 + OSI-027; first compound 0.08 µM): 0.66
relative viability (QS11 + OSI-027; first compound 0.253 µM): 0.548
relative viability (QS11 + OSI-027; first compound 0.8 µM): 0.594
relative viability (QS11 + OSI-027; first compound 2.53 µM): 0.517
relative viability (QS11 + OSI-027; first compound 8 µM): 0.49
relative viability (QS11 + Phenformin; first compound 0.08 µM): 0.391
relative viability (QS11 + Phenformin; first compound 0.253 µM): 0.397
relative viability (QS11 + Phenformin; first compound 0.8 µM): 0.389
relative viability (QS11 + Phenformin; first compound 2.53 µM): 0.374
relative viability (QS11 + Phenformin; first compound 8 µM): 0.375
relative viability (AZ628 + Bortezomib; first compound 0.08 µM): 0.969
relative viability (AZ628 + Bortezomib; first compound 0.253 µM): 0.809
relative viability (AZ628 + Bortezomib; first compound 0.8 µM): 0.903
relative viability (AZ628 + Bortezomib; first compound 2.53 µM): 0.756
relative viability (AZ628 + Bortezomib; first compound 8 µM): 0.562
relative viability ([1]; first compound 0.08 µM): 1.37
relative viability ([1]; first compound 0.8 µM): 0.937
relative viability ([1]; first compound 2.53 µM): 0.854
relative viability ([1]; first compound 8 µM): 0.986

HCC-827
relative viability (QS11 + OSI-027; first compound 0.08 µM): 0.845
relative viability (QS11 + OSI-027; first compound 0.253 µM): 0.855
relative viability (QS11 + OSI-027; first compound 0.8 µM): 0.754
relative viability (QS11 + OSI-027; first compound 2.53 µM): 0.862
relative viability (QS11 + OSI-027; first compound 8 µM): 1.01
relative viability (QS11 + Phenformin; first compound 0.08 µM): 0.447
relative viability (QS11 + Phenformin; first compound 0.253 µM): 0.416
relative viability (QS11 + Phenformin; first compound 0.8 µM): 0.366
relative viability (QS11 + Phenformin; first compound 2.53 µM): 0.478
relative viability (QS11 + Phenformin; first compound 8 µM): 0.547
relative viability (AZ628 + Bortezomib; first compound 0.08 µM): 1.04
relative viability (AZ628 + Bortezomib; first compound 0.253 µM): 1.03
relative viability (AZ628 + Bortezomib; first compound 0.8 µM): 1.03
relative viability (AZ628 + Bortezomib; first compound 2.53 µM): 1.01
relative viability (AZ628 + Bortezomib; first compound 8 µM): 1.07
relative viability ([1]; first compound 0.08 µM): 1.12
relative viability ([1]; first compound 0.8 µM): 1.02
relative viability ([1]; first compound 2.53 µM): 1.08
relative viability ([1]; first compound 8 µM): 1.15

201T
relative viability (QS11 + OSI-027; first compound 0.08 µM): 0.759
relative viability (QS11 + OSI-027; first compound 0.253 µM): 0.685
relative viability (QS11 + OSI-027; first compound 0.8 µM): 0.662
relative viability (QS11 + OSI-027; first compound 8 µM): 0.836
relative viability (QS11 + Phenformin; first compound 0.08 µM): 0.468
relative viability (QS11 + Phenformin; first compound 0.253 µM): 0.399
relative viability (QS11 + Phenformin; first compound 0.8 µM): 0.4
relative viability (QS11 + Phenformin; first compound 2.53 µM): 0.414
relative viability (QS11 + Phenformin; first compound 8 µM): 0.376
relative viability (AZ628 + Bortezomib; first compound 0.08 µM): 1.15
relative viability (AZ628 + Bortezomib; first compound 0.253 µM): 1.13
relative viability (AZ628 + Bortezomib; first compound 0.8 µM): 1.13
relative viability (AZ628 + Bortezomib; first compound 2.53 µM): 1.16
relative viability (AZ628 + Bortezomib; first compound 8 µM): 1.21
relative viability ([1]; first compound 0.08 µM): 1.1
relative viability ([1]; first compound 0.8 µM): 1.09
relative viability ([1]; first compound 2.53 µM): 1.06
relative viability ([1]; first compound 8 µM): 1.15

HCC-44
relative viability (QS11 + OSI-027; first compound 0.08 µM): 0.606
relative viability (QS11 + OSI-027; first compound 0.253 µM): 0.531
relative viability (QS11 + OSI-027; first compound 0.8 µM): 0.512
relative viability (QS11 + OSI-027; first compound 2.53 µM): 0.593
relative viability (QS11 + OSI-027; first compound 8 µM): 0.378
relative viability (QS11 + Phenformin; first compound 0.08 µM): 0.208
relative viability (QS11 + Phenformin; first compound 0.253 µM): 0.206
relative viability (QS11 + Phenformin; first compound 0.8 µM): 0.25
relative viability (QS11 + Phenformin; first compound 2.53 µM): 0.158
relative viability (QS11 + Phenformin; first compound 8 µM): 0.157
relative viability (AZ628 + Bortezomib; first compound 0.08 µM): 0.904
relative viability (AZ628 + Bortezomib; first compound 0.253 µM): 0.915
relative viability (AZ628 + Bortezomib; first compound 0.8 µM): 1.09
relative viability (AZ628 + Bortezomib; first compound 2.53 µM): 1.01
relative viability (AZ628 + Bortezomib; first compound 8 µM): 0.758
relative viability ([1]; first compound 0.08 µM): 1.04
relative viability ([1]; first compound 0.8 µM): 0.861
relative viability ([1]; first compound 2.53 µM): 0.801
relative viability ([1]; first compound 8 µM): 1.04
